Results reported in patent US8754129B2, “Crystalline vorinostat form VI” (Generics [UK] Limited, priority 2008, dated 2014).

Test: Polymorphic stability on storage at 40° C./75% relative humidity
Format: physicochemical
Details: kept at a temperature of 40° C.±2° C. and a relative humidity of 75%±5% for 6 months
Procedure: All XRPD analyses were carried out on a Bruker D8 Advance instrument, equipped with a copper radiation source with a wavelength of 1.54 Å.
All DSC analyses were carried out on a Perkin Elmer instrument, over a temperature range of 25° C. to 250° C., at a heating rate of 10° C./min, using a closed aluminium pan with a pinhole as crucible.

Compound: O=C(CCCCCCC(=O)Nc1ccccc1)NO [crystalline form VI, N-hydroxy-N′-phenyl-octanediamide]
- polymorphic stability (conversion over time to other polymorphs): very stable polymorphically with no conversion over time to other polymorphs
